Values joined by “and” are separate entries in the source; they are usually repeats but may differ in a detail not shown here. Equal entries are not always repeated. Toxic doses and inconclusive results are not listed.
Test system: CD2F1 mice, L1210 leukemia ip, survival T/C
Assay: NCI In Vivo Anticancer Drug Screen. Data for tumor model L1210 Leukemia (intraperitoneal) in CD2F1 (CDF1) mice
Details: higher = longer survival
In short: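 Each value reflects a quotient of treated over vehicle control outcomes in mice with a transplanted tumor.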

[1] = endpoint: mean survival time, dose: 100.0 mg/kg/injection, schedule: Q04DX002 (ip), vehicle: saline with Tween-80
[2] = endpoint: mean survival time, dose: 200.0 mg/kg/injection, schedule: Q04DX002 (ip), vehicle: saline with Tween-80
[3] = endpoint: mean survival time, dose: 400.0 mg/kg/injection, schedule: Q04DX002 (ip), vehicle: saline with Tween-80
[4] = endpoint: mean survival time, dose: 25.0 mg/kg/injection, schedule: Q04DX003 (ip), vehicle: saline with Tween-80
[5] = endpoint: mean survival time, dose: 100.0 mg/kg/injection, schedule: Q04DX003 (ip), vehicle: saline with Tween-80
[6] = endpoint: mean survival time, dose: 400.0 mg/kg/injection, schedule: Q04DX003 (ip), vehicle: saline with Tween-80
[7] = endpoint: mean survival time, dose: 200.0 mg/kg/injection, schedule: Q01DX009 (ip), vehicle: saline
[8] = endpoint: mean survival time, dose: 200.0 mg/kg/injection, schedule: Q04DX003 (ip), vehicle: saline with Tween-80
[9] = endpoint: mean survival time, dose: 100.0 mg/kg/injection, schedule: Q04DX003 (ip), vehicle: saline
[10] = endpoint: mean survival time, dose: 200.0 mg/kg/injection, schedule: Q04DX003 (ip), vehicle: saline
[11] = endpoint: mean survival time, dose: 400.0 mg/kg/injection, schedule: Q04DX003 (ip), vehicle: saline
[12] = endpoint: mean survival time, dose: 50.0 mg/kg/injection, schedule: Q01DX009 (ip), vehicle: saline with Tween-80
[13] = endpoint: mean survival time, dose: 100.0 mg/kg/injection, schedule: Q01DX009 (ip), vehicle: saline with Tween-80
[14] = endpoint: mean survival time, dose: 200.0 mg/kg/injection, schedule: Q01DX009 (ip), vehicle: saline with Tween-80
[15] = endpoint: mean survival time, dose: 25.0 mg/kg/injection, schedule: Q01DX009 (ip), vehicle: saline
[16] = endpoint: mean survival time, dose: 50.0 mg/kg/injection, schedule: Q01DX009 (ip), vehicle: saline
[17] = endpoint: mean survival time, dose: 100.0 mg/kg/injection, schedule: Q01DX009 (ip), vehicle: saline
[18] = endpoint: mean survival time, dose: 400.0 mg/kg/injection, schedule: Q01DX009 (ip), vehicle: saline with Tween-80
[19] = endpoint: mean survival time, dose: 50.0 mg/kg/injection, schedule: Q04DX002 (ip), vehicle: saline with Tween-80
[20] = endpoint: mean survival time, dose: 400.0 mg/kg/injection, schedule: Q04DX003 (ip), vehicle: other

With `O=c1ccc(OS(=O)(=O)c2ccccc2)n[nH]1` the T/C [1] was 95 % of control, the T/C [2] was 87 % of control and the T/C [3] was 104 % of control.
`Cn1c(=O)c2c(ncn2C(C(N)=O)C(N)=O)n(C)c1=O` was tested, and the T/C (endpoint: mean survival time, dose: 200.0 mg/kg/injection, schedule: Q01DX005 (ip), vehicle: distilled water + Tween-80) was 106 % of control and the T/C (endpoint: mean survival time, dose: 400.0 mg/kg/injection, schedule: Q01DX005 (ip), vehicle: distilled water + Tween-80) was 100 % of control.
`CCCC(Sc1nc(N)nc2nc[nH]c12)C(=O)O` (stereo unspecified) was tested, and the T/C [4] was 103 % of control, the T/C (endpoint: mean survival time, dose: 50.0 mg/kg/injection, schedule: Q04DX003 (ip), vehicle: saline with Tween-80) was 110 % of control and the T/C [5] was 118 % of control. The T/C (endpoint: mean survival time, dose: 150.0 mg/kg/injection, schedule: Q04DX003 (ip), vehicle: saline with Tween-80) was 151 % of control, the T/C (endpoint: mean survival time, dose: 300.0 mg/kg/injection, schedule: Q04DX003 (ip), vehicle: saline with Tween-80) was 156 % of control and the T/C [6] was 168 % of control.
In the case of `CN(C)[C@@H]1C(=O)C(C(=O)NCNC(CO)(CO)CO)=C(O)[C@@]2(O)C(=O)C3=C(O)c4c(O)cccc4[C@@](C)(O)[C@H]3C[C@@H]12`, the T/C [7] is reported as 93 % of control, the T/C (endpoint: mean survival time, dose: 264.0 mg/kg/injection, schedule: Q01DX009 (ip), vehicle: acetone) is reported as 97 % of control and the T/C (endpoint: mean survival time, dose: 300.0 mg/kg/injection, schedule: Q01DX009 (ip), vehicle: saline) is reported as 98 % of control. The T/C (endpoint: mean survival time, dose: 400.0 mg/kg/injection, schedule: Q01DX009 (ip), vehicle: acetone) was 92 % of control.
`O=S(=O)(O)C(O)c1cccc2ccccc12` (stereo unspecified) was tested, and the T/C [5] was 91 % of control, the T/C [8] was 91 % of control and the T/C [6] was 94 % of control.
`C=CC[n+]1ccccc1/C=C\c1ccc(N(C)C)cc1` was tested, and the T/C (endpoint: mean survival time, dose: 75.0 mg/kg/injection, schedule: Q01DX001 (ip), vehicle: saline) was 118 % of control.
In the case of `CC1C=CCC2C(=O)OC(=O)C12` (stereo unspecified), the T/C [9] is reported as 94 % of control, the T/C [10] is reported as 95 % of control and the T/C [11] is reported as 101 % of control.
`c1ccc2c3c(ccc2c1)OCCOCCOCCOCCOc1ccc2ccccc2c1-3` was tested, and the T/C (endpoint: mean survival time, dose: 100.0 mg/kg/injection, schedule: Q01DX001 (ip), vehicle: saline with Tween-80) was 91 % of control, the T/C (endpoint: mean survival time, dose: 200.0 mg/kg/injection, schedule: Q01DX001 (ip), vehicle: saline with Tween-80) was 100 % of control and the T/C (endpoint: mean survival time, dose: 400.0 mg/kg/injection, schedule: Q01DX001 (ip), vehicle: saline with Tween-80) was 100 % of control.
In the case of `CCOC/C=C/C1CCCCC1`, the T/C [12] is reported as 117 % of control, the T/C [13] is reported as 97 % of control and the T/C [14] is reported as 97 % of control.
With `COc1cccc(CN2CCNCC2)c1` the T/C (endpoint: mean survival time, dose: 25.0 mg/kg/injection, schedule: Q01DX005 (ip), vehicle: water) was 102 % of control, the T/C (endpoint: mean survival time, dose: 50.0 mg/kg/injection, schedule: Q01DX005 (ip), vehicle: water) was 102 % of control and the T/C (endpoint: mean survival time, dose: 100.0 mg/kg/injection, schedule: Q01DX005 (ip), vehicle: water) was 102 % of control.
For `CC(=O)C(C)(C)N(C)c1ccccc1`, the T/C [9] was 97 % of control, the T/C [10] was 93 % of control and the T/C [11] was 93 % of control.
`CCCC(=O)c1cc(O)c(O)cc1O` was tested, and the T/C (endpoint: mean survival time, dose: 12.5 mg/kg/injection, schedule: Q01DX009 (ip), vehicle: saline with Tween-80) was 111 % of control, the T/C (endpoint: mean survival time, dose: 25.0 mg/kg/injection, schedule: Q01DX009 (ip), vehicle: saline with Tween-80) was 93 % of control and the T/C [12] was 97 % of control.
With `NC(CSCc1cccs1)C(=O)O` (stereo unspecified) the T/C [15] was 94 % of control, the T/C [16] was 100 % of control and the T/C [17] was 90 % of control. For the same compound, the T/C [7] was 101 % of control and the T/C (endpoint: mean survival time, dose: 400.0 mg/kg/injection, schedule: Q01DX009 (ip), vehicle: saline) was 95 % of control.
With `O=C1N[C@H]2[C@H](CS[C@H]2CCCCC(=O)N(CCP(c2ccccc2)c2ccccc2)CCP(c2ccccc2)c2ccccc2)N1` the T/C (endpoint: median survival time, dose: 25.0 mg/kg/injection, schedule: Q01DX009 (ip), vehicle: Klucel (hydroxypropylcellulose) (HPC)) was 100 % of control and 107 % of control, the T/C (endpoint: median survival time, dose: 50.0 mg/kg/injection, schedule: Q01DX009 (ip), vehicle: Klucel (hydroxypropylcellulose) (HPC)) was 98 % of control and 107 % of control and the T/C (endpoint: median survival time, dose: 100.0 mg/kg/injection, schedule: Q01DX009 (ip), vehicle: Klucel (hydroxypropylcellulose) (HPC)) was 103 % of control and 109 % of control. For the same compound, the T/C (endpoint: median survival time, dose: 200.0 mg/kg/injection, schedule: Q01DX009 (ip), vehicle: Klucel (hydroxypropylcellulose) (HPC)) was 97 % of control and 110 % of control and the T/C (endpoint: median survival time, dose: 400.0 mg/kg/injection, schedule: Q01DX009 (ip), vehicle: Klucel (hydroxypropylcellulose) (HPC)) was 90 % of control and 108 % of control.
For `S=c1[nH]cc[nH]1`, the T/C (endpoint: mean survival time, dose: 100.0 mg/kg/injection, schedule: Q01DX001 (ip), vehicle: saline) was 103 % of control, the T/C (endpoint: mean survival time, dose: 200.0 mg/kg/injection, schedule: Q01DX001 (ip), vehicle: saline) was 100 % of control and the T/C (endpoint: mean survival time, dose: 400.0 mg/kg/injection, schedule: Q01DX001 (ip), vehicle: saline) was 96 % of control.
`Cc1ccc(N2OCCN(C(=O)c3cc([N+](=O)[O-])cc([N+](=O)[O-])c3)C2c2ccccc2)cc1` (stereo unspecified) was tested, and the T/C [13] was 91 % of control, the T/C [14] was 95 % of control and the T/C [18] was 91 % of control.
For `COC(CN(CC(OC)OC)c1ncnc2nc[nH]c12)OC`, the T/C (endpoint: mean survival time, dose: 25.0 mg/kg/injection, schedule: Q01DX005 (ip), vehicle: other) was 93 % of control, the T/C (endpoint: mean survival time, dose: 50.0 mg/kg/injection, schedule: Q01DX005 (ip), vehicle: other) was 91 % of control and the T/C (endpoint: mean survival time, dose: 100.0 mg/kg/injection, schedule: Q01DX005 (ip), vehicle: other) was 98 % of control. For the same compound, the T/C (endpoint: mean survival time, dose: 200.0 mg/kg/injection, schedule: Q01DX005 (ip), vehicle: other) was 98 % of control and the T/C (endpoint: mean survival time, dose: 400.0 mg/kg/injection, schedule: Q01DX005 (ip), vehicle: other) was 96 % of control.
In the case of `CCOC(=O)C(C=O)(CC)C(=O)OCC`, the T/C [13] is reported as 97 % of control, the T/C [14] is reported as 94 % of control and the T/C [18] is reported as 103 % of control.
For `COc1ccc(-c2nnc(-c3ccc(OC)c(Cl)c3)nn2)cc1Cl`, the T/C [5] was 93 % of control and the T/C [8] was 86 % of control.
With `O=C1C=CC(=O)N1c1cc(Cl)ccc1Cl` the T/C [5] was 93 % of control and the T/C [8] was 93 % of control.
For `Nc1c[n+]([O-])cc2ccccc12`, the T/C [5] was 94 % of control and the T/C [8] was 94 % of control.
With `Cc1sc2cc(N)ccc2[n+]1C` the T/C (endpoint: mean survival time, dose: 12.5 mg/kg/injection, schedule: Q04DX002 (ip), vehicle: saline with Tween-80) was 102 % of control, the T/C (endpoint: mean survival time, dose: 25.0 mg/kg/injection, schedule: Q04DX002 (ip), vehicle: saline with Tween-80) was 98 % of control and the T/C [19] was 95 % of control. The T/C [1] was 98 % of control and the T/C [2] was 109 % of control.
With `[Cl][Hg][c]1ccco1` the T/C (endpoint: mean survival time, dose: 1.25 mg/kg/injection, schedule: Q01DX001 (ip), vehicle: Klucel (hydroxypropylcellulose) (HPC)) was 100 % of control, the T/C (endpoint: mean survival time, dose: 2.5 mg/kg/injection, schedule: Q01DX001 (ip), vehicle: Klucel (hydroxypropylcellulose) (HPC)) was 96 % of control and the T/C (endpoint: mean survival time, dose: 5.0 mg/kg/injection, schedule: Q01DX001 (ip), vehicle: Klucel (hydroxypropylcellulose) (HPC)) was 97 % of control.
For `CCCCNC(C)(C)C(SS)c1ccc(C(F)(F)F)cc1` (stereo unspecified), the T/C (endpoint: mean survival time, dose: 100.0 mg/kg/injection, schedule: Q04DX003 (ip), vehicle: other) was 94 % of control and the T/C [20] was 86 % of control.
In the case of `CCCCCCCCCC(O)CCCCCC` (stereo unspecified), the T/C (endpoint: mean survival time, dose: 200.0 mg/kg/injection, schedule: Q04DX003 (ip), vehicle: other) is reported as 108 % of control and the T/C [20] is reported as 96 % of control.
With `C=CC(=O)N1CCN(C(=O)C=C)c2cc(C)c(C)cc21` the T/C [15] was 101 % of control, the T/C [16] was 101 % of control and the T/C [17] was 100 % of control.
In the case of `CC1(C)N=C(N)N=C(N)N1c1ccc(OCCOc2ccc(S(=O)(=O)F)cc2)c(Cl)c1`, the T/C [4] is reported as 114 % of control and the T/C [5] is reported as 120 % of control.
In the case of `O=C(CC(O)(C(F)(F)F)C(F)(F)F)c1ccc(Cl)c2ccccc12`, the T/C (endpoint: mean survival time, dose: 100.0 mg/kg/injection, schedule: Q01DX001 (ip), vehicle: other) is reported as 102 % of control, the T/C (endpoint: mean survival time, dose: 200.0 mg/kg/injection, schedule: Q01DX001 (ip), vehicle: other) is reported as 100 % of control and the T/C (endpoint: mean survival time, dose: 400.0 mg/kg/injection, schedule: Q01DX001 (ip), vehicle: other) is reported as 96 % of control.
For `CCOCCN=C(N)C(N)=NCCOCC`, the T/C [19] was 102 % of control, the T/C [1] was 98 % of control and the T/C [2] was 94 % of control. The T/C [3] was 94 % of control.

Reference: PubChem BioAssay AID256 (DTP/NCI, 2004)
